Reference: US20060014712A1, “Controlled delivery of therapeutic compounds” (CeMines, Inc., priority 2004, published 2006)

Legend:
[1] = tested on: B16; assay: Cell counting after 7 day peptide treatment; assay type: cell-based, mouse; details: CPP mimicking peptides, conc 10 µM, start count 10
Experimental: (§1) The ability to block interaction of MITF, SOX10 and STAT3 with active transcriptional complex and inhibit proliferation and stimulate apoptosis of melanoma cells were tested on human melanoma cell lines SK-MEL-28 and WM 266-4, and mouse melanoma cell line B16. Methods. Human melanoma cell lines SK-MEL-28 and WM 2664 and mouse melanoma cell line B16 were obtained from the American Tissue Culture Collection (ATCC). Cells were cultured according to recommendations of ATCC (DMEM, 10% FCS, penicillin+streptomycin) and used in experiments after two passages in the laboratory. Cells were grown in 24 well plates, each treatment in triplicates. Cells were plated 16 hours prior treatments started. Peptides were added to the media, and media was changed every day during 7 day experiment. […] Cells were precipitated and resuspended in 100 μl of PBS, and 5 μl were removed for counting

[2] = tested on: WM 266-4; assay: Cell counting after 7 day peptide treatment; assay type: cell-based, human; details: CPP mimicking peptides, conc 10 µM, start count 10
Experimental: as §1, with “counting Methods. Human melanoma cell lines SK-MEL-28 and WM 266-4 were obtained from the American Tissue Culture Collection (ATCC) and were cultured according to recommendations of ATCC (DMEM, 10% FCS, penicillin+streptomycin). Human keratinocytes were obtained from Clonetics and cultured according to manufacturers protocol. Cells were used in experiments after two passages in the laboratory. Cells were grown in 24 well plates, each treatment in triplicates. Cells were plated 16 hours prior treatments started. Peptides were added to the media, and media was changed every day during 7 day experiment. […] For cell counting, cells were trypsinized (0.25% Trypsin, 2 mM EDTA) in Ca, Mg free PBS. Cells were precipitated and resuspended in 100 μl of PBS, and 5 μl were removed for counting.” for “counting”

[3] = tested on: SK-MEL-28; assay: Cell counting after 7 day peptide treatment; assay type: cell-based, human; details: CPP mimicking peptides, conc 10 µM, start count 10
Experimental: The ability to block interaction of MITF, SOX10 and STAT3 with active transcriptional complex and inhibit proliferation and stimulate apoptosis of melanoma cells were tested on human melanoma cell lines SK-MEL-28 and WM 266-4, and mouse melanoma cell line B16. Methods. Human melanoma cell lines SK-MEL-28 and WM 2664 and mouse melanoma cell line B16 were obtained from the American Tissue Culture Collection (ATCC). Cells were cultured according to recommendations of ATCC (DMEM, 10% FCS, penicillin+streptomycin) and used in experiments after two passages in the laboratory. Cells were grown in 24 well plates, each treatment in triplicates. Cells were plated 16 hours prior treatments started. Peptides were added to the media, and media was changed every day during 7 day experiment. CPP concentration was 10 μM For cell counting, cells were trypsinized (0.25% Trypsin, 2 mM EDTA) in Ca^+2, Mg^+2 free PBS. Cells were precipitated and resuspended in 100 μl of PBS, and 5 μl were removed for counting Methods. Human melanoma cell lines SK-MEL-28 and WM 266-4 were obtained from the American Tissue Culture Collection (ATCC) and were cultured according to recommendations of ATCC (DMEM, 10% FCS, penicillin+streptomycin). Human keratinocytes were obtained from Clonetics and cultured according to manufacturers protocol. Cells were used in experiments after two passages in the laboratory. Cells were grown in 24 well plates, each treatment in triplicates. Cells were plated 16 hours prior treatments started. Peptides were added to the media, and media was changed every day during 7 day experiment. CPP concentration was 10 μM. For cell counting, cells were trypsinized (0.25% Trypsin, 2 mM EDTA) in Ca, Mg free PBS. Cells were precipitated and resuspended in 100 μl of PBS, and 5 μl were removed for counting.

[4] = tested on: Dct/Trp2 promoter; assay: Transient CAT assay, Dct/Trp2 proximal promoter-CAT construct in WM 266-4; assay type: cell-based, human; details: CPP concentration 10 μM
Experimental: (§2) SOX10 and MITF interact with the proximal promoter of Dct/Trp2 gene and induces its activity (Ludwig A. et al., FEBS Lett. 556 (1-3):236-244 (2004)). Thus, a Dct/Trp2 proximal promoter reporter construct was used to analyze effect of mimicking peptides on promoter activity using transient CAT assay.
(§3) Methods. Human melanoma cell lines SK-MEL-28 and WM 266-4 were obtained from the American Tissue Culture Collection (ATCC) and were cultured according to recommendations of ATCC (DMEM, 10% FCS, penicillin+streptomycin). Dct/Trp2 proximal promoter-CAT construct (Ludwig et al., supra) was used in all experiments.
(§4) Cells were transfected by using FuGene reagent (Roche Molecular Biochemicals) according to manufacturer's instructions. Freeze-thaw lysates of cells collected 48 h after the transfection were assayed for CAT activity as described (Pothier, F. et al., DNA Cell Biol. 11(1):83-90 (1992)). At least two different DNA preparations were tested for each plasmid. To normalize the transfection efficiencies, cells were cotransfected with pON260 expressing β-galactosidase (Spaete, R. R. and Mocarski, E. S., J. Virol. 54(3):817-24 (1985); Spaete, R. R. and Mocarski, E. S., J. Virol. 56(1):13543 (1985)). All the CAT activities were normalized to total protein and β-galatosidase activity.
(§5) Following transfection, cells were grown in 6 well plates, each treatment in triplicates. Peptides were added to the media and media was changed every day during the 7 day experiment. CPP concentration was 10 μM.

[5] = tested on: Dct/Trp2 promoter; assay: Transient CAT assay, Dct/Trp2 proximal promoter-CAT construct in SK-MEL-28; assay type: cell-based, human; details: CPP concentration 10 μM
Experimental: as §2, §3, §4, §5

[6] = tested on: SK-MEL-28; assay: WST-1 test (mitochondrial activity); assay type: cell-based, human; details: CPP mimicking peptides, conc 10 µM, untreated = 1
[7] = tested on: B16; assay: WST-1 test (mitochondrial activity); assay type: cell-based, mouse; details: CPP mimicking peptides, conc 10 µM, untreated = 1
Experimental: Methods. Human melanoma cell lines SK-MEL-28 and WM 2664 and mouse melanoma cell line B16 were obtained from the American Tissue Culture Collection (ATCC). Cells were cultured according to recommendations of ATCC (DMEM, 10% FCS, penicillin+streptomycin) and used in experiments after two passages in the laboratory. Cells were grown in 24 well plates, each treatment in triplicates. Cells were plated 16 hours prior treatments started. Peptides were added to the media, and media was changed every day during 7 day experiment. […]

[8] = tested on: WM 266-4; assay: WST-1 test (mitochondrial activity); assay type: cell-based, human; details: CPP mimicking peptides, conc 10 µM, untreated = 1
Experimental: Methods. Human melanoma cell lines SK-MEL-28 and WM 2664 and mouse melanoma cell line B16 were obtained from the American Tissue Culture Collection (ATCC). Cells were cultured according to recommendations of ATCC (DMEM, 10% FCS, penicillin+streptomycin) and used in experiments after two passages in the laboratory. Cells were grown in 24 well plates, each treatment in triplicates. Cells were plated 16 hours prior treatments started. Peptides were added to the media, and media was changed every day during 7 day experiment. […] Methods. Human melanoma cell lines SK-MEL-28 and WM 266-4 were obtained from the American Tissue Culture Collection (ATCC) and were cultured according to recommendations of ATCC (DMEM, 10% FCS, penicillin+streptomycin). Human keratinocytes were obtained from Clonetics and cultured according to manufacturers protocol. Cells were used in experiments after two passages in the laboratory. Cells were grown in 24 well plates, each treatment in triplicates. Cells were plated 16 hours prior treatments started. Peptides were added to the media, and media was changed every day during 7 day experiment. […] WST-1 test was performed to measure mitochondrial activity, which can also be used as a measure of cell number.

RPKKRKVRRRQLMLEPYALDMSRIRVLSESLGLATQSG [Scr-int1, reference compound]
Cell Count 7 d [1]: 83 | Cell Count 7 d [2]: 41 | Cell Count 7 d [3]: 53 | Dct/Trp2 promoter activity (CAT assay) [4]: do not have significant effect | Dct/Trp2 promoter activity (CAT assay) [5]: do not have significant effect | WST-1 7 d [6]: 1 | WST-1 7 d [7]: 1.1 | WST-1 7 d [8]: 1
